Experimental data reported in patent US11479802B2, “Assays for screening activity of modulators of members of the hydroxy steroid (17-beta) dehydrogenase (HSD17B) family” (Regeneron Pharmaceuticals, Inc., priority 2017, dated 2022).

Biological target: T1, human HSD17B13 (Homo sapiens, UniProt Q7Z5P4)
T1 sequence (Q7Z5P4 20-300): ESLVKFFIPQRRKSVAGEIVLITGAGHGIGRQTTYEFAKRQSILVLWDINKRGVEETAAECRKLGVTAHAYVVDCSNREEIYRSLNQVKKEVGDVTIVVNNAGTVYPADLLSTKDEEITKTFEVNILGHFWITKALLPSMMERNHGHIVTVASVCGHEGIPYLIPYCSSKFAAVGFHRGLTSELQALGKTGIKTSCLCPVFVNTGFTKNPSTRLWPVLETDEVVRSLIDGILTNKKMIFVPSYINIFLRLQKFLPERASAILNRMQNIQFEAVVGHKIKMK
Test: Substrate screening of steroid and bioactive lipid libraries against purified recombinant HSD17B13 (NADH-linked luciferase assay)
Assay type: biochemical
Settings: for HSD17B13 Enzymatic Activity Relative Light Units: 500 μM NAD+, 100 ng enzyme, 3 hours at 23° C.; for HSD17B13 Enzymatic Activity Percent Estradiol Control: normalized to 50 μM estradiol after subtraction of 5% DMSO
Procedure: To understand the functional consequences of premature truncation of the HSD17B13 protein due to rs72613567:TA (the associated variant, rs72613567, is an insertion of an adenine adjacent to the donor splice site of exon six (TA allele)), the enzymatic activity of isoforms A and D was evaluated in vitro using recombinant protein and nicotinamide […] dinucleotide as cofactor. Reactions were performed in a final volume of 40 μl of assay buffer (0.2 M Tris-HCl, pH 7.5) which contained 500 μM NAD^+, 5 μM bioactive lipid or 50 μM steroid (all in a final concentration of 5% DMSO), and 100 ng of recombinant human HSD17B13. Reactions were incubated for 3 hours, at 23° C., after which an equal volume detection reagent was added. Following a 1 hour incubation at 23° C., the relative light units (RLUs) were measured on an Envision Plate Reader (Perkin Elmer). Raw RLU values were normalized as percent of control (50 μM estradiol) following subtraction of negative control (5% DMSO) using the following formula: Percent of control (POC)=100×(Sample (RLU)−Negative CTRLaverage)/(Positive CTRLaverage−Negative CTRLaverage).

[1] = Bioactive Lipid Library, 5 μM bioactive lipid (Estradiol Control 50 μM)
[2] = Bioactive Lipid Library, 5 μM bioactive lipid

SMILES	HSD17B13 Enzymatic Activity Relative Light Units [1]	HSD17B13 Enzymatic Activity Percent Estradiol Control [2]	HSD17B13 Enzymatic Activity Relative Light Units (Steroid Library, 50 μM steroid)	HSD17B13 Enzymatic Activity Percent Estradiol Control (Steroid Library, 50 μM steroid)
CCCCC/C=C\C/C=C\C=C\[C@@H](O)CCCCCCC(=O)O [8(S)-HETrE]	412960 RLU	9.38%	–	–
CC/C=C\C[C@H](O)/C=C/[C@@H]1[C@H](C/C=C\CCCC(=O)O)[C@@H](O)C[C@H]1O [8-iso Prostaglandin F3α]	361040 RLU	6.16%	–	–
CCCCCC(=O)CC[C@@H]1[C@H](C/C=C\CCCC(=O)O)[C@@H](O)C[C@H]1O [8-iso-13,14-dihydro-15-keto Prostaglandin F2α]	212520 RLU	−5.58%	–	–
CCCCCC(=O)/C=C/[C@H]1C(O)CC(=O)[C@H]1C/C=C\CCCC(=O)O (stereo partly shown) [8-iso-15-keto Prostaglandin E2]	262160 RLU	−1.65%	–	–
CCCCCC(=O)/C=C/[C@@H]1[C@H](C/C=C\CCCC(=O)O)[C@@H](O)C[C@H]1O [8-iso-15-keto Prostaglandin F2α]	312360 RLU	2.31%	–	–
CCCCC/C=C\C/C=C\C[C@@H](O)/C=C/C=C\CCCC(=O)O [9(R)-HETE]	1656640 RLU	101.86%	–	–
CCCCC/C=C\C=C\[C@H](O)CCCCCCCC(=O)O [9(R)-HODE]	413280 RLU	9.40%	–	–
CC/C=C\C/C=C\C/C=C\C[C@H](O)/C=C/C=C\CCCC(=O)O [9(S)-HEPE]	564200 RLU	20.63%	–	–
CCCCC/C=C\C/C=C\C[C@H](O)/C=C/C=C\CCCC(=O)O [9(S)-HETE]	497640 RLU	15.68%	–	–
CCCCC/C=C\C=C\[C@@H](O)CCCCCCCC(=O)O [9(S)-HODE]	539560 RLU	18.79%	–	–
CC/C=C\C/C=C\C=C\[C@@H](O)CCCCCCCC(=O)O [9(S)-HOTrE]	586800 RLU	22.31%	–	–
CCCCC/C=C\C=C\[C@H](CCCCCCCC(=O)O)OO [9(S)-HpODE]	219240 RLU	−5.03%	–	–
CCCCCCCC/C=C(\CCCCCCCC(=O)O)[N+](=O)[O-] [9-Nitrooleate]	31600 RLU	−22.16%	–	–
CCCCC/C=C\C=C\C(=O)CCCCCCCC(=O)O [9-OxoODE]	359280 RLU	5.39%	–	–
CCCCCCCC/C(=C\CCCCCCCC(=O)O)[N+](=O)[O-] [10-Nitrooleate]	28200 RLU	−22.42%	–	–
CCCCC/C=C\C[C@H]1O[C@H]1C/C=C\C/C=C\CCCC(=O)NCCO [11(12)-EET Ethanolamide]	440800 RLU	8.74%	–	–
CCCCC/C=C\C=C\[C@H](O)CCCCCCCCCC(=O)O [11(R)-HEDE]	1674200 RLU	103.16%	–	–
CC/C=C\C/C=C\C=C\[C@H](O)C/C=C\C/C=C\CCCC(=O)O [11(R)-HEPE]	940920 RLU	48.64%	–	–
CCCCC/C=C\C=C\[C@H](O)C/C=C\C/C=C\CCCC(=O)O [11(R)-HETE]	1064120 RLU	57.80%	–	–

SMILES	HSD17B13 Enzymatic Activity Relative Light Units [1]	HSD17B13 Enzymatic Activity Percent Estradiol Control [2]	HSD17B13 Enzymatic Activity Relative Light Units (Steroid Library, 50 μM steroid)	HSD17B13 Enzymatic Activity Percent Estradiol Control (Steroid Library, 50 μM steroid)
CCCCC/C=C\C=C\[C@@H](O)CCCCCCCCCC(=O)O [11(S)-HEDE]	1056440 RLU	57.23%	–	–
CC/C=C\C/C=C\C=C\[C@@H](O)C/C=C\C/C=C\CCCC(=O)O [11(S)-HEPE]	1525600 RLU	92.11%	–	–
CCCCC/C=C\C=C\[C@@H](O)C/C=C\C/C=C\CCCC(=O)O [11(S)-HETE]	696400 RLU	30.46%	–	–
[2H]C([2H])(/C=C\C[C@H]1[C@@H](O)CC(=O)O[C@@H]1/C=C/[C@@H](O)CCCCC)C([2H])([2H])CC(=O)O [11-dehydro Thromboxane B2-d4]	366280 RLU	3.11%	–	–
CCCCCC(O)C=CC1OC(=O)CC(O)C1CC=CCCCC(=O)O (stereo not shown) [11-dehydro Thromboxane B2]	349160 RLU	5.22%	–	–
CC/C=C\C[C@H](O)/C=C/[C@H]1OC(=O)C[C@H](O)[C@@H]1C/C=C\CCCC(=O)O [11-dehydro Thromboxane B3]	322480 RLU	3.11%	–	–
CCCCCC(O)C=CC1OC(=O)CC(O)C1CC=CCC(=O)O (stereo not shown) [11-dehydro-2,3-dinor Thromboxane B2]	183120 RLU	−7.90%	–	–
C[C@]12CC[C@@H](O)C[C@@H]1CC[C@@H]1[C@@H]2[C@@H](O)C[C@]2(C)C(=O)CC[C@@H]12 [11beta-Hydroxyandrosterone]	–	–	224720 RLU	1.12%
CCCCCC(=O)CC[C@@H]1[C@@H](C/C=C\CCCC(=O)O)[C@@H](O)C[C@@H]1O [11β-13,14-dihydro-15-keto Prostaglandin F2α]	310000 RLU	2.13%	–	–
CCCCC(C)(O)C/C=C/[C@H]1[C@@H](O)CC(=O)[C@@H]1CCCCCCC(=O)OC (stereo partly drawn) [11β-Misoprostol]	331200 RLU	3.80%	–	–
CCCCC[C@H](O)/C=C/[C@H]1[C@@H](O)CC(=O)[C@@H]1C/C=C\CCCC(=O)O [11β-Prostaglandin E2]	354840 RLU	5.67%	–	–
CCCCC/C=C\C[C@@H](O)/C=C/C=C\C/C=C\CCCC(=O)O [12(R)-HETE]	1932320 RLU	122.36%	–	–
CCCCC/C=C\C[C@@H](/C=C/C=C\C/C=C\CCCC(=O)O)OO [12(S)-HpETE]	199760 RLU	−6.47%	–	–
CCCCCCCC[C@@H](O)C=CC=CC=C[C@@H](O)CCCC(=O)O [12-epi Leukotriene B3]	481880 RLU	15.71%	–	–
CCCCC/C=C\C[C@H](O)/C=C/C=C/C=C\[C@@H](O)CCCC(=O)O [12-epi Leukotriene B4]	389240 RLU	8.39%	–	–
CCCCC[C@@H](O)/C=C/C=C\CCCCCCCC(=O)O [13(R)-HODE]	1105960 RLU	60.91%	–	–
CCCCC[C@H](O)/C=C/C=C\CCCCCCCC(=O)O [13(S)-HODE]	792800 RLU	37.62%	–	–
CCCCC[C@H](O)/C=C/C=C\C/C=C\CCCCC(=O)O [13(S)-HOTrE(γ)]	458840 RLU	12.79%	–	–
CC/C=C\C[C@H](O)/C=C/C=C\CCCCCCCC(=O)O [13(S)-HOTrE]	528240 RLU	17.95%	–	–
